The values below come from BindingDB's records for patent US12570607 (CSPC Zhongqi Pharmaceutical Technology (Shijiazhuang) Co., 2026).

Where only a bound is given, the exact number is not on record here.

Sequence of Cyclin-dependent kinase 9 (P50750 whole entry): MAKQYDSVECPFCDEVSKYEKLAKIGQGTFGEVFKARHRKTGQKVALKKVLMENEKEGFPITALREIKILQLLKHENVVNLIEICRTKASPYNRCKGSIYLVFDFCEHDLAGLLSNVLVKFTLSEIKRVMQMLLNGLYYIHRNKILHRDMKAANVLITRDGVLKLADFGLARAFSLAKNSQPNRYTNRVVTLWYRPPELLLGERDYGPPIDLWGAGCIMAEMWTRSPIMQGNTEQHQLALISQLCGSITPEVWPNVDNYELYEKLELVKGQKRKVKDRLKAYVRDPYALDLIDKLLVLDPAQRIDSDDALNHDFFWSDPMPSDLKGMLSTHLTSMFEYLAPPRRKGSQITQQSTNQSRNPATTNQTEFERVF
Sequence of Cyclin-dependent kinase 5 (Q00535 whole entry): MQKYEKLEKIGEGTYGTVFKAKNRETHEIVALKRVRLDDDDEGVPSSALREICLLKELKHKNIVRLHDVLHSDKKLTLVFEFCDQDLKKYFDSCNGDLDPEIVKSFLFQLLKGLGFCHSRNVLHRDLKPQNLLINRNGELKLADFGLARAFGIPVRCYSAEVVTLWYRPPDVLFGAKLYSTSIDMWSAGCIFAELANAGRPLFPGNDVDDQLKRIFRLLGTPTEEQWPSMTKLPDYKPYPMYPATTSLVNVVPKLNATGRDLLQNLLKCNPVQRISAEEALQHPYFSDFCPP
Sequence of Cyclin-dependent kinase 6 (Q00534 whole entry): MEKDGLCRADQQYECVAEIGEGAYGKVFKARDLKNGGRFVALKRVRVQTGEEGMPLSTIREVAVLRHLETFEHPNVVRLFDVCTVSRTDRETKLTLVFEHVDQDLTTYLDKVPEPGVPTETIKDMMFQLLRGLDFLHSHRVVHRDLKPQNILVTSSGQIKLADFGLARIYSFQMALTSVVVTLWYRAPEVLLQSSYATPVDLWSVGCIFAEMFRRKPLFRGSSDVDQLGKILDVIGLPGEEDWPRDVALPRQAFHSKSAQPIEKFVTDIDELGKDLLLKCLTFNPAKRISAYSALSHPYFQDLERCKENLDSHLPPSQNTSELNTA
Sequence of Cyclin-dependent kinase 1 (P06493 whole entry): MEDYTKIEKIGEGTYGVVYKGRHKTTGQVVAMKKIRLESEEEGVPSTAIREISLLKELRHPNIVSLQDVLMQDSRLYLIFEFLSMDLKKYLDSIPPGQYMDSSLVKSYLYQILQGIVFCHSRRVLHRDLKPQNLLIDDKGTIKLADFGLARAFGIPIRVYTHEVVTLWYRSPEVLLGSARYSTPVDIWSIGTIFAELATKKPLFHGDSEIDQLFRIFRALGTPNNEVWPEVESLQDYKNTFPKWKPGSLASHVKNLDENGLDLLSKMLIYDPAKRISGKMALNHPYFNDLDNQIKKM
Sequence of Cyclin-dependent kinase 4 (P11802 whole entry): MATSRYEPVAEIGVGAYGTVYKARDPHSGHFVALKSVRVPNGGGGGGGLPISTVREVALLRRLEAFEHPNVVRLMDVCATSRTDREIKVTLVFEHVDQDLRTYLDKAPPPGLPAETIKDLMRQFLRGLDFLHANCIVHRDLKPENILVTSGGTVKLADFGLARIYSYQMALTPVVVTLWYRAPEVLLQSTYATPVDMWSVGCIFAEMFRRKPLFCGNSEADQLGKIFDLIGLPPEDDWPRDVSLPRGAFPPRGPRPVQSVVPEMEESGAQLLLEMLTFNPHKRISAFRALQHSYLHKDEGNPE

The first test concerns the target Cyclin-dependent kinase 2 (Homo sapiens, UniProt P24941). Briefly: Inhibitory Effect Assay. How it is done:
(§1) A compound dissolved in DMSO (50 nL) was transferred to the kinase reaction plate by using acoustic technology (Echo). 5 μL of a CDK kinase dilution solution was added to the kinase reaction plate and incubated at room temperature for 10 minutes after centrifugation. 5 μL of a substrate premix solution was added to the plate, and the final concentrations of the substrate and the ATP in each well were shown in Table 1. After centrifugation, the reaction was performed at 30° C. for 120 minutes.
Consider `COc1cc(F)ccc1-c1cc(NC(=O)C2CCCC(NC(C)=O)C2)ncc1F` (configuration not stated) [US12570607, Example 3], for which 2120 nM corresponded to half-maximal inhibition (IC50).
Still for that read-out and setting: under `COc1cc(F)ccc1-c1cc(NC(=O)[C@H]2CCC[C@@H](NC(C)=O)C2)ncc1F` [US12570607, Example 5] stands 475 nM; under `CC(=O)N[C@@H]1CCC[C@H](C(=O)Nc2cc(-c3ccc(F)cc3OC(C)C)c(F)cn2)C1` [US12570607, Example 8], 991 nM; under `COc1ccccc1-c1cc(NC(=O)[C@H]2CCC[C@@H](NC(C)=O)C2)ncc1F` [US12570607, Example 17], 1440 nM.
Same read-out and setting: under `CC(=O)N[C@@H]1CCC[C@H](C(=O)Nc2cc(-c3cccc4ccoc34)c(F)cn2)C1` [US12570607, Example 19] stands 638 nM; under `COc1cc(F)ccc1-c1cc(NC(=O)[C@H]2CCC[C@@H](NS(C)(=O)=O)C2)ncc1F` [US12570607, Example 25], 2050 nM; under `COc1cc(F)ccc1-c1cc(NC(=O)[C@H]2CCC[C@@H](NC(=O)CC#N)C2)ncc1F` [US12570607, Example 32], 1070 nM.
On the same count and under the same terms, the figure for `COc1cc(F)ccc1-c1cc(NC(=O)[C@H]2CCC[C@@H](NC(=O)C3(C#N)CC3)C2)ncc1F` [US12570607, Example 33] is 761 nM.

The target of the next test is Cyclin-dependent kinase 5 (Homo sapiens, UniProt Q00535). Put plainly: Inhibitory Effect Assay. How it is done:
as §1
Regarding `COc1cc(F)ccc1-c1cc(NC(=O)C2CCCC(NC(C)=O)C2)ncc1F` (configuration not stated) [US12570607, Example 3], the concentration for half-maximal inhibition (IC50) – broadly, the midpoint of a concentration-inhibition curve – came out at 721 nM. This lies in the sub-micromolar range.
`CC(=O)N[C@@H]1CCC[C@H](C(=O)Nc2cc(-c3ccc(F)cc3OC(C)C)c(F)cn2)C1` [US12570607, Example 8] returned an IC50 of 614 nM.
Same read-out and setting: the figure for `COc1ccccc1-c1cc(NC(=O)[C@H]2CCC[C@@H](NC(C)=O)C2)ncc1F` [US12570607, Example 17] is 357 nM; for `COc1cc(F)ccc1-c1cc(NC(=O)[C@H]2CCC[C@@H](NS(C)(=O)=O)C2)ncc1F` [US12570607, Example 25] it is 716 nM.
The same measure, in the same setting: the figure for `COc1cc(F)ccc1-c1cc(NC(=O)[C@H]2CCC[C@@H](NC(=O)CC#N)C2)ncc1F` [US12570607, Example 32] is 329 nM.
On the same count and under the same terms, under `COc1cc(F)ccc1-c1cc(NC(=O)[C@H]2CCC[C@@H](NC(=O)C3(C#N)CC3)C2)ncc1F` [US12570607, Example 33] stands 168 nM.

A further test deals with Cyclin-dependent kinase 7 (Homo sapiens, UniProt P50613). Put plainly: Inhibitory Effect Assay. How it is done: as §1
Sequence of Cyclin-dependent kinase 7 (P50613 whole entry): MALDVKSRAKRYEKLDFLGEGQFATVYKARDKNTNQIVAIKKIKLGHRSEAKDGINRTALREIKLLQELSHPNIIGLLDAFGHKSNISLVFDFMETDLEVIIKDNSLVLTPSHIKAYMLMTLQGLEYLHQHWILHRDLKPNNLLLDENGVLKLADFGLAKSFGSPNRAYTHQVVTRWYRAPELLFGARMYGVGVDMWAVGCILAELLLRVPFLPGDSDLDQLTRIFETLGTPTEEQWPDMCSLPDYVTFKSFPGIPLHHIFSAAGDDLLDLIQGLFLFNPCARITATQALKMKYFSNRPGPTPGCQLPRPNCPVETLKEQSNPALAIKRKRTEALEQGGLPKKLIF
Compound `COc1cc(F)ccc1-c1cc(NC(=O)C2CCCC(NC(C)=O)C2)ncc1F` (configuration not stated) [US12570607, Example 3] displayed an IC50 of 6210 nM. That is a single-digit micromolar value.
Still for that read-out and setting: under `COc1cc(F)ccc1-c1cc(NC(=O)[C@H]2CCC[C@@H](NC(C)=O)C2)ncc1F` [US12570607, Example 5] stands 2750 nM.
Same read-out and setting: the figure for `CC(=O)N[C@@H]1CCC[C@H](C(=O)Nc2cc(-c3ccc(F)cc3OC(C)C)c(F)cn2)C1` [US12570607, Example 8] is > 9900 nM.
Regarding `COc1ccccc1-c1cc(NC(=O)[C@H]2CCC[C@@H](NC(C)=O)C2)ncc1F` [US12570607, Example 17], the IC50 is 5480 nM.
Take `CC(=O)N[C@@H]1CCC[C@H](C(=O)Nc2cc(-c3cccc4ccoc34)c(F)cn2)C1` [US12570607, Example 19]: the IC50 stood at 1170 nM.
On the same count and under the same terms, under `COc1cc(F)ccc1-c1cc(NC(=O)[C@H]2CCC[C@@H](NS(C)(=O)=O)C2)ncc1F` [US12570607, Example 25] stands 4360 nM.
The same measure, in the same setting: the figure for `COc1cc(F)ccc1-c1cc(NC(=O)[C@H]2CCC[C@@H](NC(=O)CC#N)C2)ncc1F` [US12570607, Example 32] is 1650 nM; for `COc1cc(F)ccc1-c1cc(NC(=O)[C@H]2CCC[C@@H](NC(=O)C3(C#N)CC3)C2)ncc1F` [US12570607, Example 33] it is 1260 nM.

For another test, the target named is Cyclin-dependent kinase 9 (Homo sapiens, UniProt P50750). Briefly: Inhibitory Effect Assay. How it is done:
as §1
Compound `COc1cc(F)ccc1-c1cc(NC(=O)C2CCCC(NC(C)=O)C2)ncc1F` (configuration not stated) [US12570607, Example 3] registered an IC50 of 16.8 nM.
Same read-out and setting: under `COc1cc(F)ccc1-c1cc(NC(=O)[C@H]2CCC[C@@H](NC(C)=O)C2)ncc1F` [US12570607, Example 5] stands 7.9 nM.
Still for that read-out and setting: under `CC(=O)N[C@@H]1CCC[C@H](C(=O)Nc2cc(-c3ccc(F)cc3OC(C)C)c(F)cn2)C1` [US12570607, Example 8] stands 7.21 nM.
On the same count and under the same terms, the figure for `COc1ccccc1-c1cc(NC(=O)[C@H]2CCC[C@@H](NC(C)=O)C2)ncc1F` [US12570607, Example 17] is 7.12 nM; for `CC(=O)N[C@@H]1CCC[C@H](C(=O)Nc2cc(-c3cccc4ccoc34)c(F)cn2)C1` [US12570607, Example 19] it is 7.65 nM; for `COc1cc(F)ccc1-c1cc(NC(=O)[C@H]2CCC[C@@H](NS(C)(=O)=O)C2)ncc1F` [US12570607, Example 25] it is 7.54 nM.
Compound `COc1cc(F)ccc1-c1cc(NC(=O)[C@H]2CCC[C@@H](NC(=O)CC#N)C2)ncc1F` [US12570607, Example 32] showed an IC50 of 6.86 nM.
On the same count and under the same terms, the figure for `COc1cc(F)ccc1-c1cc(NC(=O)[C@H]2CCC[C@@H](NC(=O)C3(C#N)CC3)C2)ncc1F` [US12570607, Example 33] is 6.68 nM.

A further test concerns the target Cyclin-dependent kinase 4 (Homo sapiens, UniProt P11802). Put plainly: Inhibitory Effect Assay. The procedure: as §1
Regarding `COc1cc(F)ccc1-c1cc(NC(=O)[C@H]2CCC[C@@H](NC(C)=O)C2)ncc1F` [US12570607, Example 5], inhibition was half-maximal at 429 nM (IC50).
Still for that read-out and setting: the figure for `CC(=O)N[C@@H]1CCC[C@H](C(=O)Nc2cc(-c3ccc(F)cc3OC(C)C)c(F)cn2)C1` [US12570607, Example 8] is 273 nM.
`COc1ccccc1-c1cc(NC(=O)[C@H]2CCC[C@@H](NC(C)=O)C2)ncc1F` [US12570607, Example 17] displayed a half-maximal inhibitory concentration (IC50) of 474 nM.
On the same count and under the same terms, under `CC(=O)N[C@@H]1CCC[C@H](C(=O)Nc2cc(-c3cccc4ccoc34)c(F)cn2)C1` [US12570607, Example 19] stands 196 nM.
Turning to `COc1cc(F)ccc1-c1cc(NC(=O)[C@H]2CCC[C@@H](NS(C)(=O)=O)C2)ncc1F` [US12570607, Example 25], the half-inhibitory concentration (IC50) is 811 nM. Against the preceding compound, the IC50 is about 4.1-fold higher.
On the same count and under the same terms, the figure for `COc1cc(F)ccc1-c1cc(NC(=O)[C@H]2CCC[C@@H](NC(=O)CC#N)C2)ncc1F` [US12570607, Example 32] is 353 nM.
Consider `COc1cc(F)ccc1-c1cc(NC(=O)[C@H]2CCC[C@@H](NC(=O)C3(C#N)CC3)C2)ncc1F` [US12570607, Example 33], for which the 50% inhibitory concentration (IC50) was 395 nM.

Another test deals with Cyclin-dependent kinase 6 (Homo sapiens, UniProt Q00534). Put plainly: Inhibitory Effect Assay. How it is done:
as §1
For the compound `COc1cc(F)ccc1-c1cc(NC(=O)C2CCCC(NC(C)=O)C2)ncc1F` (configuration not stated) [US12570607, Example 3], the half-inhibitory concentration (IC50) worked out at 1390 nM.
Still for that read-out and setting: under `COc1cc(F)ccc1-c1cc(NC(=O)[C@H]2CCC[C@@H](NC(C)=O)C2)ncc1F` [US12570607, Example 5] stands 1120 nM; under `CC(=O)N[C@@H]1CCC[C@H](C(=O)Nc2cc(-c3ccc(F)cc3OC(C)C)c(F)cn2)C1` [US12570607, Example 8], 1770 nM; under `COc1ccccc1-c1cc(NC(=O)[C@H]2CCC[C@@H](NC(C)=O)C2)ncc1F` [US12570607, Example 17], 3170 nM.
The same measure, in the same setting: under `CC(=O)N[C@@H]1CCC[C@H](C(=O)Nc2cc(-c3cccc4ccoc34)c(F)cn2)C1` [US12570607, Example 19] stands 297 nM; under `COc1cc(F)ccc1-c1cc(NC(=O)[C@H]2CCC[C@@H](NS(C)(=O)=O)C2)ncc1F` [US12570607, Example 25], 2360 nM.
Still for that read-out and setting: the figure for `COc1cc(F)ccc1-c1cc(NC(=O)[C@H]2CCC[C@@H](NC(=O)CC#N)C2)ncc1F` [US12570607, Example 32] is 2450 nM; for `COc1cc(F)ccc1-c1cc(NC(=O)[C@H]2CCC[C@@H](NC(=O)C3(C#N)CC3)C2)ncc1F` [US12570607, Example 33] it is 1760 nM.

The next test has as its target Cyclin-dependent kinase 1 (Homo sapiens, UniProt P06493). Put plainly: Inhibitory Effect Assay. How it is done:
as §1
Compound `COc1cc(F)ccc1-c1cc(NC(=O)C2CCCC(NC(C)=O)C2)ncc1F` (configuration not stated) [US12570607, Example 3] came in with an IC50 of 262 nM. In other words, the sub-micromolar range.
Consider `CC(=O)N[C@@H]1CCC[C@H](C(=O)Nc2cc(-c3ccc(F)cc3OC(C)C)c(F)cn2)C1` [US12570607, Example 8], for which half-maximal inhibition (IC50) was put at 214 nM.
`COc1ccccc1-c1cc(NC(=O)[C@H]2CCC[C@@H](NC(C)=O)C2)ncc1F` [US12570607, Example 17] returned an IC50 of 193 nM.
Same read-out and setting: the figure for `CC(=O)N[C@@H]1CCC[C@H](C(=O)Nc2cc(-c3cccc4ccoc34)c(F)cn2)C1` [US12570607, Example 19] is 87.1 nM.
On the same count and under the same terms, the figure for `COc1cc(F)ccc1-c1cc(NC(=O)[C@H]2CCC[C@@H](NS(C)(=O)=O)C2)ncc1F` [US12570607, Example 25] is 265 nM; for `COc1cc(F)ccc1-c1cc(NC(=O)[C@H]2CCC[C@@H](NC(=O)CC#N)C2)ncc1F` [US12570607, Example 32] it is 86.7 nM; for `COc1cc(F)ccc1-c1cc(NC(=O)[C@H]2CCC[C@@H](NC(=O)C3(C#N)CC3)C2)ncc1F` [US12570607, Example 33] it is 78.8 nM.
